Tests used:
Experiment in all cases: Test B preemergence/postemergence greenhouse plant response rating 0 to 10
Conditions in all cases: 0 to 10 scale
wheat = assay type: in vivo, Triticum aestivum
Source text: (§1) Seeds of barley (Hordeum vulgare), barnyardgrass (Echinochloa crus-galli), bedstraw (Galium aparine), blackgrass (Alopecurus myosuroides), […] (Bromus secalinus), chickweed (Stellaria media), cocklebur (Xanthium pensylvanicum), corn (Zea mays), cotton (Gossypium hirsutum), crabgrass (Digitaria spp.), giant foxtail (Setaria faberii), lambsquarters (Chenopodium album), morningglory (Ipomoea hederacea), rape (Brassica napus), rice (Oryza sativa), sorghum (Sorghum bicolor), soybean (Glycine max), sugar beet (Beta vulgaris), velvetleaf (Abutilon theophrasti), wheat (Triticum aestivum), wild buckwheat (Polygonum convolvulus), and wild oat (Avena fatua) and purple nutsedge. (Cyperus rotundus) tubers were planted and treated preemergence with test chemicals dissolved in a non-phytotoxic solvent. At the same time, these crop and weed species were also treated with postemergence applications of test chemicals. Plants ranged in height from two to eighteen cm (one to four leaf stage) for postemergence treatments. Treated plants and controls were maintained in a greenhouse for twelve to sixteen days, after which all species were compared to controls and visually evaluated. […] A dash (-) response means no test result.

blackgrass = assay type: in vivo, Alopecurus myosuroides
Source text: as §1

sugar beet = assay type: in vivo, Beta vulgaris
Source text: as §1

rape = assay type: in vivo, Brassica napus
Source text: as §1

wild oat = assay type: in vivo, Avena fatua
Source text: as §1

wild buckwheat = assay type: in vivo, Polygonum convolvulus
Source text: as §1

lambsquarters = assay type: in vivo, Chenopodium album
Source text: as §1

chickweed = assay type: in vivo, Stellaria media
Source text: as §1

barley = assay type: in vivo, Hordeum vulgare
Source text: as §1

cheatgrass = assay type: in vivo, Bromus secalinus
Source text: as §1

bedstraw = assay type: in vivo, Galium aparine
Source text: as §1

## Fc1cc(Cl)c(-c2ccccc2)cc1-c1nn2c(c1Cl)CCCC2 [Compound 46]
wheat; POSTEMERGENCE, Rate 50 g/ha
  Plant response rating, Wheat: 2
wheat; PREEMERGENCE, Rate 50 g/ha
  Plant response rating, Wheat: 0
wheat; Rate 200 g/ha, POSTEMERGENCE
  Plant response rating, Wheat: 3
wheat; Rate 200 g/ha, PREEMERGENCE
  Plant response rating, Wheat: 0
blackgrass; POSTEMERGENCE, Rate 50 g/ha
  Plant response rating, Blackgrass: 2
blackgrass; POSTEMERGENCE, Rate 200 g/ha
  Plant response rating, Blackgrass: 3
blackgrass; PREEMERGENCE, Rate 50 g/ha
  Plant response rating, Blackgrass: 0
blackgrass; Rate 200 g/ha, PREEMERGENCE
  Plant response rating, Blackgrass: 0
Sugar beet; POSTEMERGENCE, Rate 50 g/ha
  Plant response rating, Sugar beet: 10
Sugar beet; PREEMERGENCE, Rate 50 g/ha
  Plant response rating, Sugar beet: 0
Sugar beet; Rate 200 g/ha, POSTEMERGENCE
  Plant response rating, Sugar beet: 9
Sugar beet; Rate 200 g/ha, PREEMERGENCE
  Plant response rating, Sugar beet: 7
rape; POSTEMERGENCE, Rate 50 g/ha
  Plant response rating, Rape: 4
rape; PREEMERGENCE, Rate 50 g/ha
  Plant response rating, Rape: 0
rape; Rate 200 g/ha, POSTEMERGENCE
  Plant response rating, Rape: 4
rape; Rate 200 g/ha, PREEMERGENCE
  Plant response rating, Rape: 0
Wild oat; POSTEMERGENCE, Rate 50 g/ha
  Plant response rating, Wild oat: 2
Wild oat; PREEMERGENCE, Rate 50 g/ha
  Plant response rating, Wild oat: 0
Wild oat; Rate 200 g/ha, POSTEMERGENCE
  Plant response rating, Wild oat: 2
Wild buckwheat; POSTEMERGENCE, Rate 50 g/ha
  Plant response rating, Wild buckwheat: 6
Wild buckwheat; PREEMERGENCE, Rate 50 g/ha
  Plant response rating, Wild buckwheat: 0
Wild buckwheat; Rate 200 g/ha, POSTEMERGENCE
  Plant response rating, Wild buckwheat: 10
Wild buckwheat; Rate 200 g/ha, PREEMERGENCE
  Plant response rating, Wild buckwheat: 4
lambsquarters; POSTEMERGENCE, Rate 50 g/ha
  Plant response rating, Lambsquarter: 9
lambsquarters; PREEMERGENCE, Rate 50 g/ha
  Plant response rating, Lambsquarter: 0
lambsquarters; Rate 200 g/ha, POSTEMERGENCE
  Plant response rating, Lambsquarter: 10
lambsquarters; Rate 200 g/ha, PREEMERGENCE
  Plant response rating, Lambsquarter: 9
chickweed; POSTEMERGENCE, Rate 50 g/ha
  Plant response rating, Chickweed: 3
chickweed; POSTEMERGENCE, Rate 200 g/ha
  Plant response rating, Chickweed: 3
chickweed; PREEMERGENCE, Rate 50 g/ha
  Plant response rating, Chickweed: 0
chickweed; Rate 200 g/ha, PREEMERGENCE
  Plant response rating, Chickweed: 2
barley; POSTEMERGENCE, Rate 50 g/ha
  Plant response rating, Barley: 2
barley; POSTEMERGENCE, Rate 200 g/ha
  Plant response rating, Barley: 3
barley; PREEMERGENCE, Rate 50 g/ha
  Plant response rating, Barley: 0
barley; Rate 200 g/ha, PREEMERGENCE
  Plant response rating, Barley: 0
cheatgrass; POSTEMERGENCE, Rate 50 g/ha
  Plant response rating, Cheatgrass: 3
cheatgrass; POSTEMERGENCE, Rate 200 g/ha
  Plant response rating, Cheatgrass: 4
cheatgrass; PREEMERGENCE, Rate 50 g/ha
  Plant response rating, Cheatgrass: 0
cheatgrass; Rate 200 g/ha, PREEMERGENCE
  Plant response rating, Cheatgrass: 0
bedstraw; POSTEMERGENCE, Rate 50 g/ha
  Plant response rating, Bedstraw: 6
bedstraw; POSTEMERGENCE, Rate 200 g/ha
  Plant response rating, Bedstraw: 8
bedstraw; PREEMERGENCE, Rate 50 g/ha
  Plant response rating, Bedstraw: 0
bedstraw; Rate 200 g/ha, PREEMERGENCE
  Plant response rating, Bedstraw: 2

Reference: patent publication US6358885B1, “Substituted phenylheterocyclic herbicides” (Mississippi State University, priority 1992, dated 2002)
